Experimental findings from patent publication US20240050463A1, “THERAPEUTIC COMPOSITIONS AND METHODS FOR TREATING HEPATITIS B” (ARBUTUS BIOPHARMA CORPORATION, priority 2016, published 2024) are described below.

The structures appear in SMILES notation. Where two headings read alike, the source gives them in different places.

One experiment has as its system hepatitis B virus (HBV). In words: Serum HBV DNA in mouse model of HBV (pHBV1.3 hydrodynamic injection), quantitative PCR. In kind it is in vivo, NOD.CB17-Prkdc^scid/J mice. As to conditions: mean ± SEM. The protocol:
A mouse model of hepatitis B virus (HBV) was used to assess the anti-HBV effects of a small molecule inhibitor of HBV encapsidation (Compound 3) and HBV-targeting siRNAs, both as independent treatments and in combination with each other.
On Day −7, 10 micrograms of the plasmid pHBV1.3 (as per Guidotti, L., et al., Journal of Virology, 1995, 69(10): 6158-6169) was administered to NOD.CB17-Prkdc^scid/J mice via hydrodynamic injection (HDI; rapid 1.6 mL injection into the tail vein). […] As a readout of the anti-HBV effect of various treatments, serum HBV DNA concentration in mice was measured from total extracted DNA using a quantitative PCR assay (primer/probe sequences from Tanaka, Y., et al., Journal of Medical Virology, 2004, 72: 223-229).
Animals were treated with Compound 3 as follows: Starting on Day 0, a 50 mg/kg or 100 mg/kg dosage of Compound 3 was administered orally to animals on a twice-daily frequency for a total of fourteen doses between Days 0 and 7. Compound 3 was dissolved in a co-solvent formulation for administration. Negative control animals were administered either the co-solvent formulation alone, or saline. Animals were treated with lipid nanoparticle (LNP)-encapsulated HBV-targeting siRNAs as follows: On Day 0, an amount of test article equivalent to 0.1 mg/kg siRNA was administered intravenously.
The effect of these treatments was determined by collecting blood on Days 0 (pre-treatment), 4 & 7 and analyzing it for serum HBV DNA content.
Animals were treated with Compound 3 as follows: Starting on Day 0, a 100 mg/kg dosage of Compound 3 was administered orally to animals on a twice-daily frequency for a total of fourteen doses between Days 0 and 7. Compound 3 was dissolved in a co-solvent formulation for administration. Negative control animals were administered either the co-solvent formulation alone, or saline. Animals were treated with ETV as follows: Starting on Day 0, either a 100 ng/kg or a 300 ng/kg dosage of ETV was administered orally to animals on a once-daily frequency for a total of seven doses between Days 0 and 6. ETV was dissolved in DMSO to 2 mg/mL and then diluted in saline for administration.
The effect of these treatments was determined by collecting blood on Days 0 (pre-treatment), 4 & 7 and analyzing it for serum HBV DNA content. Samples with Ct values below the lower limit of quantitation (LLOQ) were set to one-half LLOQ for calculation of group means.

The subject of experiment [1] is HBV rcDNA in HepDE19 cells. Nature of the experiment: Inhibition of rcDNA in HepDE19 cells (bDNA assay), checkerboard, MacSynergy II. The class given is cell-based, HBV (human hepatoma cell line). Also on record: key to ADDITIVE INHIBITION: % inhibition of rcDNA production. The conditions noted are these: for ADDITIVE INHIBITION: GLS-4 0 μM; for inhibition at 0.000125 µM: ETV 0.125 nM alone. The protocol: In vitro combination studies were conducted using the method of Prichard and Shipman (Prichard M N, and Shipman C Jr., Antiviral Research, 1990, 14(4-5), 181-205; and Prichard M N, et. al., MacSynergy II). HepDE19 cell culture system is a HepG2 (human hepatocarcinoma) derived cell line that supports HBV DNA replication and cccDNA formation in a tetracycline (Tet)-regulated manner and produces HBV rcDNA and a detectable reporter molecule dependent on the production and maintenance of cccDNA (Guo et al 2007. J. Virol 81:12472-12484). HepDE19 (50,000 cells/well) were plated in 96 well collagen-coated tissue-culture treated microtiter plates in DMEM/F12 medium supplemented with 10% fetal bovine serum, 1% penicillin-streptomycin and 1 μg/ml tetracycline and incubated in a humidified incubator at 37° C. and 5% CO2 overnight. Next day, the cells were switched to fresh medium without tetracycline and incubated for 4 hrs at 37° C. and 5% CO2. […] The two inhibitors were tested both singly as well as in combinations in a checkerboard fashion such that each concentration of inhibitor A was combined with each concentration of inhibitor B to determine their combination effects on inhibition of rcDNA production. Following a 7 day-incubation of cells with compound combinations, the level of rcDNA present in the inhibitor-treated wells was measured using a Quantigene 2.0 bDNA assay kit (Affymetrix, Santa Clara, CA) with HBV specific custom probe set and manufacturers instructions. […] The RLU data from the single compound treated cells were analyzed using XL-Fit module in Microsoft Excel to determine EC50 values using a 4-parameter curve fitting algorithm. Concurrently, the effect of compounds on cell viability was assessed using replicate plates, plated at a density of 5,000 cells/well and incubated for 4 days, to determine the ATP content as a measure of cell viability using the cell-titer glo reagent (CTG; Promega Corporation, Madison, WI) as per manufacturer's instructions.
In vitro combination studies were conducted using the method of Prichard and Shipman (Prichard M N, Shipman C, Jr., Antiviral Res, 14, 181-205 (1990)). The HepDE19 cell line was developed as described in Guo et al. (Guo et al., J Virol, 81, 12472-12484 (2007)). It is a human hepatoma cell line stably transfected with the HBV genome, and which can express HBV pregenomic RNA and support HBV rcDNA (relaxed circular DNA) synthesis in a tetracycline-regulated manner. HepDE19 cells were plated in 96 well tissue-culture treated microtiter plates in DMEM/F12 medium supplemented with 10% fetal bovine serum+1% penicillin-streptomycin without tetracycline and incubated in a humidified incubator at 37° C. and 5% CO2 overnight. […] The two inhibitors were tested both singly as well as in combinations in a checkerboard fashion such that each concentration of inhibitor A was combined with each concentration of inhibitor B to determine their combination effects on inhibition of rcDNA production. Following a 48 hour-incubation, the level of rcDNA present in the inhibitor-treated wells was measured using a bDNA assay (Affymetrix) with HBV specific custom probe set and manufacturers instructions. […] Concurrently, the effect of inhibitor combinations on cell viability was assessed using replicate plates that were used to determine the ATP content as a measure of cell viability using the Cell-TiterGlo reagent (Promega) as per manufacturer's instructions.
In vitro combination studies were conducted using the method of Prichard and Shipman (1990) (Prichard M N, Shipman C, Jr. 1990. A three-dimensional model to analyze drug-drug interactions. Antiviral Res 14:181-205 AND Prichard M N. 1992. MacSynergy II, University of Michigan).

As to `CC[C@@H](C)NS(=O)(=O)c1ccc(F)c(C(=O)Nc2ccc(F)c(F)c2)c1` [Compound 3], the “Serum HBV DNA as percentage of individual pre-treatment baseline” value in the experiment on hepatitis B virus (HBV) (Table 2, Day 0 (pre-treatment), Compound 3 50 mg/kg oral twice daily, alone or with HBV siRNA 0.1 mg/kg IV Day 0) is on record as 100 ± 0%; in the experiment on hepatitis B virus (HBV) (Table 2, Day 0 (pre-treatment), Compound 3 100 mg/kg oral twice daily, alone or with HBV siRNA 0.1 mg/kg IV Day 0), 100 ± 0%; in the experiment on hepatitis B virus (HBV) (Table 3, Day 0 (pre-treatment), Compound 3 100 mg/kg oral twice daily alone) it was 100 ± 0%. The “ADDITIVE INHIBITION” value in experiment [1] (Compound 3 0.040 μM) is recorded as 11.14; in experiment [1] (Compound 3 0.110 μM), 19.99; in experiment [1] (Compound 3 0.330 μM), 56.68; in experiment [1] (Compound 3 1.000 μM), 86.87.

Consider `C=C1[C@H](CO)[C@@H](O)C[C@@H]1n1cnc2c(=O)[nH]c(N)nc21` [ETV, Entecavir], for which the “Serum HBV DNA as percentage of individual pre-treatment baseline” value with hepatitis B virus (HBV) (Table 3, Day 0 (pre-treatment), ETV 100 ng/kg oral once daily, alone or with Compound 3 100 mg/kg oral twice daily) stood at 100 ± 0%; with hepatitis B virus (HBV) (Table 3, Day 0 (pre-treatment), ETV 300 ng/kg oral once daily, alone or with Compound 3 100 mg/kg oral twice daily) it was 100 ± 0%; in the experiment on hepatitis B virus (HBV) (Table 3, Day 4, ETV 100 ng/kg oral once daily, alone or with Compound 3 100 mg/kg oral twice daily) it was 21 ± 5%; in the experiment on hepatitis B virus (HBV) (Table 3, Day 4, ETV 300 ng/kg oral once daily, alone or with Compound 3 100 mg/kg oral twice daily), 1.6 ± 0.3%; in the experiment with hepatitis B virus (HBV) (Table 3, Day 7, ETV 100 ng/kg oral once daily, alone or with Compound 3 100 mg/kg oral twice daily) it was 3.5 ± 0.7%; in the experiment with hepatitis B virus (HBV) (Table 3, Day 7, ETV 300 ng/kg oral once daily, alone or with Compound 3 100 mg/kg oral twice daily) it was 0.88 ± 0.31%. In addition, the inhibition at 15.63 pM in experiment [1] (Hepatitis B virus, HepDE19, ETV 0.015625 nM alone, read-out: Additive inhibition (rcDNA)) is -43.7%. Moreover, the inhibition at 16 pM in experiment [1] (Hepatitis B virus, HepDE19, ETV 0.016 nM alone) was -43.7%. Also, the inhibition at 31 pM in experiment [1] (Hepatitis B virus, HepDE19, ETV 0.031 nM alone) was -50.1%. Also, the inhibition at 31.25 pM in experiment [1] (Hepatitis B virus, HepDE19, ETV 0.03125 nM alone, read-out: Additive inhibition (rcDNA)) was -50.1%. In addition, in experiment [1] (Hepatitis B virus, HepDE19, ETV 0.0625 nM alone, read-out: Additive inhibition (rcDNA)), the inhibition at 62.5 pM is -30.3%. The inhibition at 63 pM in experiment [1] (Hepatitis B virus, HepDE19, ETV 0.063 nM alone) was -30.3%. For the same compound, the inhibition at 0.000125 µM in experiment [1] (Hepatitis B virus, HepDE19, read-out: Additive inhibition (rcDNA)) is -23.5%; in experiment [1] (Hepatitis B virus, HepDE19, read-out: Average % inhibition (rcDNA)), -23.5%. Besides, the inhibition at 0.00025 µM in experiment [1] (Hepatitis B virus, HepDE19, ETV 0.25 nM alone, read-out: Additive inhibition (rcDNA)) was -21.2%; in experiment [1] (Hepatitis B virus, HepDE19, ETV 0.250 nM alone, read-out: Average % inhibition (rcDNA)), -21.2%. Besides, the inhibition at 0.0005 µM in experiment [1] (Hepatitis B virus, HepDE19, ETV 0.5 nM alone, read-out: Additive inhibition (rcDNA)) was -10.2%; in experiment [1] (Hepatitis B virus, HepDE19, ETV 0.500 nM alone, read-out: Average % inhibition (rcDNA)), -10.2%. For the same compound, the inhibition at 0.001 µM in experiment [1] (Hepatitis B virus, HepDE19, ETV 1 nM alone, read-out: Additive inhibition (rcDNA)) worked out at 41.7%; in experiment [1] (Hepatitis B virus, HepDE19, ETV 1.000 nM alone, read-out: Average % inhibition (rcDNA)), 41.7%. Also, the inhibition at 0.002 µM in experiment [1] (Hepatitis B virus, HepDE19, ETV 2 nM alone, read-out: Additive inhibition (rcDNA)) came out at 58.4%; in experiment [1] (Hepatitis B virus, HepDE19, ETV 2.000 nM alone, read-out: Average % inhibition (rcDNA)) it was 58.4%. For the same compound, the inhibition at 0.004 µM in experiment [1] (Hepatitis B virus, HepDE19, ETV 4 nM alone, read-out: Additive inhibition (rcDNA)) was determined as 70%; in experiment [1] (Hepatitis B virus, HepDE19, ETV 4.000 nM alone, read-out: Average % inhibition (rcDNA)) it was 70%.

The term inhibition denotes the change of the read-out against control, counted positive when it falls.
